Reference: ChEMBL document CHEMBL5352384, “Identification of new FK866 analogues with potent anticancer activity against pancreatic cancer” (Eur J Med Chem, 2022)
Active and inactive are the calls of the source. The calls are words filed in the database; no cut-off is given here.

Assays:
[1] = system: Jurkat; assay: Antiproliferative activity against human Jurkat cells assessed as inhibition of cell growth measured after 72 hrs by XTT assay; assay type: functional, cell-based
[2] = system: MIA PaCa-2; assay: Antiproliferative activity against human MIA PaCa-2 cells assessed as inhibition of cell growth measured after 72 hrs by XTT assay; assay type: functional, cell-based; details: MIA PaCa-2, 72 h
[3] = system: BXPC-3; assay: Antiproliferative activity against human BXPC-3 cells assessed as inhibition of cell growth measured after 72 hrs by XTT assay; assay type: functional, cell-based; details: BXPC-3, 72 h
[4] = system: PANC-1; assay: Antiproliferative activity against human PANC-1 cells assessed as inhibition of cell growth measured after 72 hrs by XTT assay; assay type: functional, cell-based; details: PANC-1, 72 h
[5] = system: PANC-1; assay: Cytotoxicity against human PANC-1 cells assessed as reduction in cell viability measured after 72 hrs by resazurin staining based fluorescent plate reader; assay type: functional; details: PANC-1, 72 h
[6] = system: Jurkat; assay: Induction of apoptosis in human Jurkat cells assessed as cell death at upto 1000 nM measured after 96 hrs by annexin V and 7AAD double staining based flow cytometry analysis; assay type: functional
[7] = system: Jurkat; assay: Induction of apoptosis in human Jurkat cells assessed as caspase-3 cleavage at 10 nM measured after 96 hrs by flow cytometry analysis; assay type: functional, cell-based
[8] = system: Jurkat; assay: Antiproliferative activity against human Jurkat cells assessed as reduction in cell viability at 10 nM incubated for 96 hrs in presence of NAD+ by annexin V and 7AAD double staining based flow cytometry analysis; assay type: functional
[9] = system: Jurkat; assay: Antiproliferative activity against human Jurkat cells assessed as reduction in cell viability at 10 nM incubated for 96 hrs in presence of NMN by annexin V and 7AAD double staining based flow cytometry analysis; assay type: functional

| IC50 [1] [nM] | IC50 [2] [nM] | SMILES | also measured |
| --- | --- | --- | --- |
| 33 | 69 | O=C(/C=C/c1ccnnc1)NCCCCC1CCN(C(=O)c2ccccc2)CC1 | IC50 [3]: 19.4 nM |
| 35 | 25 | COc1cccc(OC)c1C(=O)N1CCC(CCCCNC(=O)/C=C/c2ccnnc2)CC1 | IC50 [3]: 15.6 nM |
| 3500 | – | O=C(/C=C/c1cccnc1)NCC(O)CCC1CCN(C(=O)c2ccccc2)CC1 (centres undefined) | – |
| 10 | – | COc1cc(C(=O)N2CCC(CCCCNC(=O)/C=C/c3cccnc3)CC2)cc(OC)c1OC | – |
| 50 | – | O=C(/C=C/c1cccnc1)NCCCCC1CCN(C(=O)C2CCCCO2)CC1 (centres undefined) | – |
| 6.5 | 24 | COc1cccc(OC)c1C(=O)N1CCC(CCCCNC(=O)/C=C/c2cccnc2F)CC1 | IC50 [4]: 5.7 nM |
| 2.3 | 4 | O=C(/C=C/c1cccnc1F)NCCCCC1CCN(C(=O)c2ccccc2)CC1 | – |
| 4.3 | 3.9 | COc1ccc(OC)c(C(=O)N2CCC(CCCCNC(=O)/C=C/c3cccnc3)CC2)c1 | IC50 [3]: 13 nM; IC50 [4]: 2.8 nM |
| 6.7 | 13.5 | O=C(/C=C/c1ccc(F)nc1F)NCCCCC1CCN(C(=O)c2ccccc2)CC1 | IC50 [3]: 31 nM; IC50 [4]: 14 nM |
| 28 | – | O=C(/C=C/c1cccnc1)NCCCCC1CCN(C(=O)CCc2ccccc2)CC1 | – |
| 20 | – | O=Cc1ccc(C(=O)N2CCC(CCCCNC(=O)/C=C/c3cccnc3)CC2)cc1 | – |
| 2500 | – | O=C(/C=C/c1cccnc1)NCC1OC1CC1CCN(C(=O)c2ccccc2)CC1 (centres undefined) | – |
| 100 | – | COc1ccc(C(=O)N2CCC(CCCCNC(=O)/C=C/c3cccnc3)CC2)cc1 | – |
| 0.8 | 3 | COc1cc(C=O)cc(OC)c1C(=O)N1CCC(CCCCNC(=O)/C=C/c2cccnc2F)CC1 | IC50 [3]: 53 nM; IC50 [4]: 16 nM |
| 30 | – | O=C(/C=C/c1cccnc1)NCCCCC1CCN(C(=O)C2CCCO2)CC1 (centres undefined) | – |
| 36 | – | O=C(/C=C/c1cccnc1)NCCCCC1CCN(C(=O)/C=C/c2ccccc2)CC1 | – |
| 2.3 | 1 | COc1ccccc1C(=O)N1CCC(CCCCNC(=O)/C=C/c2cccnc2)CC1 | IC50 [3]: 0.5 nM; IC50 [4]: 0.08 nM; Activity [8]: inactive; Activity [9]: inactive; Activity [6]: Active; Activity [7]: Active |
| 850 | – | CC(=O)c1cccc(C(=O)N2CCC(CCCCNC(=O)/C=C/c3cccnc3)CC2)c1 | – |
| 28 | – | COc1ccc(C(=O)N2CCC(CCCCNC(=O)/C=C/c3cccnc3)CC2)c(OC)c1OC | – |
| 0.4 | 0.25 | COc1cc(C=O)cc(OC)c1C(=O)N1CCC(CCCCNC(=O)/C=C/c2cccnc2)CC1 | IC50 [3]: 13 nM; IC50 [4]: 1.9 nM |
| 16 | – | O=C(/C=C/c1cccnc1)NCCCCC1CCN(S(=O)(=O)c2ccccc2)CC1 | – |
| 5 | 2.7 | COc1cccc(OC)c1C(=O)N1CCC(C/C=C/CNC(=O)/C=C/c2cccnc2)CC1 | IC50 [3]: 0.4 nM; IC50 [4]: 2.3 nM |
| 35 | – | O=C(/C=C/c1cccnc1)NCCCCC1CCN(C(=O)C2CCCOC2)CC1 (centres undefined) | – |

More lines, now with the values behind:

| SMILES | IC50 [1] [nM] | IC50 [2] [nM] | also measured |
| --- | --- | --- | --- |
| O=C(/C=C/c1cccnc1)NCCCCC1CCN(C(=O)c2ccc([N+](=O)[O-])cc2)CC1 | 68 | – | – |
| O=C(/C=C/c1cccnc1)NCCCCC1CCN(C(=O)c2ccc(CO)cc2)CC1 | 34 | – | – |
| O=C(/C=C/c1cccnc1)NC/C=C/CC1CCN(C(=O)c2ccccc2)CC1 | 10 | 13 | IC50 [3]: 34 nM; IC50 [4]: 8.6 nM |
| O=C(/C=C/c1cccnc1Cl)NCCCCC1CCN(C(=O)c2ccccc2)CC1 | 2500 | – | – |
| O=C(NCCCc1cn[nH]c1)c1ccc(-c2ccncc2)c(C#Cc2ccc(F)cc2)c1 | – | – | EC50 [5]: 3.5 nM |
| Cc1ccc(S(=O)(=O)N2CCC(CCCCNC(=O)/C=C/c3cccnc3)CC2)cc1 | 400 | – | – |
| COc1cc(OC)c(C(=O)N2CCC(C/C=C/CNC(=O)/C=C/c3cccnc3)CC2)c(OC)c1 | 3 | 0.8 | IC50 [3]: 2.8 nM; IC50 [4]: 0.4 nM |
| O=C(/C=C/c1cccnc1)NCCCCC1CCN(C(=O)C2CCOCC2)CC1 | 30 | – | – |
| O=C(/C=C/c1cccnc1)NC/C=C/C1CCN(C(=O)c2ccccc2)CC1 | 100 | – | – |
| CC(=O)c1ccc(C(=O)N2CCC(CCCCNC(=O)/C=C/c3cccnc3)CC2)cc1 | 800 | – | – |
| O=C(/C=C/c1cccnc1)NCCCCC1CCN(C(=O)c2ccccc2)CC1 [DAPORINAD] | 0.6 | 2.2 | IC50 [3]: 0.3 nM; IC50 [4]: 0.6 nM; Activity [6]: Active; Activity [7]: Active |
| O=C(/C=C/c1cccnc1)NCCCCC1CCN(C(=O)c2ccc(C(F)(F)F)cc2)CC1 | > 1000 | – | – |
| O=Cc1cccc(C(=O)N2CCC(CCCCNC(=O)/C=C/c3cccnc3)CC2)c1 | 40 | – | – |
| COc1ccc(C(=O)N2CCC(CCCCNC(=O)/C=C/c3cccnc3)CC2)cc1OC | 32 | – | – |
| COc1cccc(OC)c1C(=O)N1CCC(CCCCNC(=O)/C=C/c2ccc(F)nc2F)CC1 | 73 | 75 | IC50 [4]: 2 nM |
| COc1cc(OC)c(C(=O)N2CCC(CCCCNC(=O)/C=C/c3cccnc3)CC2)c(OC)c1 | 1 | 0.16 | IC50 [3]: 1.7 nM; IC50 [4]: 0.9 nM; Activity [8]: inactive; Activity [9]: inactive; Activity [6]: Active; Activity [7]: Active |

| SMILES | IC50 [1] [nM] | IC50 [2] [nM] | also measured |
| --- | --- | --- | --- |
| O=C(/C=C/c1ccc[n+]([O-])c1)NCCCCC1CCN(C(=O)c2ccccc2)CC1 | 100 | – | – |
| O=C(/C=C/c1cccnc1)NCCCCC1CCN(C(=O)C2CCC(=O)N2)CC1 (centres undefined) | 350 | – | – |
| O=C(/C=C/c1cccnc1)NCCCCC1CCN(C(=O)c2ccc(F)cc2)CC1 | 10 | – | – |
| COc1ccc(C(=O)N2CCC(CCCCNC(=O)/C=C/c3cccnc3)CC2)c(OC)c1 | 8.4 | 4 | IC50 [3]: 24 nM; IC50 [4]: 0.2 nM |
| COc1cccc(OC)c1C(=O)N1CCC(OCCCNC(=O)/C=C/c2cccnc2)CC1 | 850 | – | – |
| O=C(/C=C/c1cccnc1)NCCCOC1CCN(C(=O)c2ccccc2)CC1 | 800 | – | – |
| O=C(/C=C/c1cccnc1)NCCCCC1CCN(C(=O)c2ccccc2O)CC1 | 5.8 | 3.9 | IC50 [3]: 8.1 nM; IC50 [4]: 1.3 nM |
| O=C(/C=C/c1ccc(Cl)nc1Cl)NCCCCC1CCN(C(=O)c2ccccc2)CC1 | 2500 | – | – |
| O=C(/C=C/c1cnccn1)NCCCCC1CCN(C(=O)c2ccccc2)CC1 | > 1000 | – | – |
| O=C(/C=C/c1cccnc1)NCCC1CCN(C(=O)c2ccccc2)CC1 | > 200 | – | – |
| COc1cccc(C(=O)N2CCC(CCCCNC(=O)/C=C/c3cccnc3)CC2)c1OC | 3.6 | 4.5 | IC50 [3]: 25 nM; IC50 [4]: 3.2 nM; Activity [8]: inactive; Activity [9]: inactive; Activity [6]: Active; Activity [7]: Active |
| COc1cccc(OC)c1C(=O)N1CCC(CCCCNC(=O)/C=C/c2cnccn2)CC1 | > 1000 | – | – |
| COc1cccc(C(=O)N2CCC(CCCCNC(=O)/C=C/c3cccnc3)CC2)c1 | 9 | – | – |
| O=C(/C=C/c1cccnc1)NCCCCC1CCN(C(=O)Cc2ccccc2)CC1 | 18 | – | – |
| COc1cccc(OC)c1C(=O)N1CCC(CCCCNC(=O)/C=C/c2cccnc2)CC1 | 0.8 | 0.5 | IC50 [3]: 0.004 nM; IC50 [4]: 0.6 nM; Activity [8]: inactive; Activity [9]: inactive; Activity [6]: Active; Activity [7]: Active |
| O=C(/C=C/c1cccnc1)NCCCCC1CCN(C(=O)C2CCCCC2)CC1 | 32 | – | – |
